A short description of the series: in vitro. As to conditions: human, hela cells, % viability.

As a reminder, the viability is a read-out of living cells in per cent, often relative to untreated cells. For the compound `C[n+]1cn(/N=C/c2ccco2)cn1` [CBK028562I], the viability at 28.5 h, 10 µM worked out at 104%.
The figure for `O=C(O)C1(NS(=O)(=O)c2ccc(Cl)cc2)CCCCC1` [CBK028566] is 111%; for `CC1CN(c2nccn(CCOc3ccc(Br)cc3)c2=O)CCN1` (stereo not drawn) [CBK028596T] it is 94.2%; for `O=c1c(N2CCCNCC2)nccn1CCOc1ccc(Br)cc1` [CBK028613T] it is 95%.
Consider `O=c1c(N2CCCNCC2)nccn1CCOc1ccc(Oc2ccccc2)cc1` [CBK028615T], for which the viability at 28.5 h, 10 µM came to 101%.
Consider `Fc1cc(F)c(OCCCCOc2nccnc2N2CCNCC2)cc1F` [CBK028624T], for which the viability at 28.5 h, 10 µM worked out at 105%.
As for `Cc1ccc(S(=O)(=O)Nc2sc3c(c2C(=O)N2CCN(C)CC2)CCCC3)cc1[N+](=O)[O-]` [CBK028650], the viability at 28.5 h, 10 µM turned out to be 93.9%.
As for `O=C(Nc1ccc(F)cc1)c1c(NS(=O)(=O)c2ccc(Oc3ccccc3)cc2)sc2c1CCCC2` [CBK028653], the viability at 28.5 h, 10 µM is 96.7%.
Turning to `O=C(Nc1ccc(F)cc1)c1c(NS(=O)(=O)Cc2ccccc2[N+](=O)[O-])sc2c1CCCC2` [CBK028654], the viability at 28.5 h, 10 µM worked out at 85.3%.
The figure for `O=C(c1c(NS(=O)(=O)c2cccc3cccnc23)sc2c1CCCC2)N1CCOCC1` [CBK028655] is 84.2%; for `CCCc1ccc(S(=O)(=O)Nc2ccc(C(=O)OC)cc2)cc1` [CBK028682] it is 99.5%; for `COC(=O)c1ccc(NS(=O)(=O)c2cccc3cccnc23)cc1` [CBK028694] it is 104%.
Take `COC(=O)c1ccc(NS(=O)(=O)Cc2ccccc2)cc1` [CBK028699]: the viability at 28.5 h, 10 µM came to 91.4%.
Regarding `CC(=O)Nc1cccc(NS(=O)(=O)c2ccc(N3CCNCC3)c3ccccc23)c1` [CBK028702C], the viability at 28.5 h, 10 µM came to 105%.
`Nc1nc2ccccc2c(=O)[nH]1` [CBK028707]: the viability at 28.5 h, 10 µM worked out at 101%.
Consider `C/C(=N/Nc1nc[nH]n1)c1ccc(Cl)c(Cl)c1` [CBK028722], for which the viability at 28.5 h, 10 µM worked out at 80%.
With `CN(/N=C/c1cc(Br)cs1)c1ccc(Cl)nn1` [CBK028729], the viability at 28.5 h, 10 µM was 94.1%.
`Cc1cc(CN2CCCC2)cc(C)c1O` [CBK028736C]: the viability at 28.5 h, 10 µM was 96.3%.
In the case of `OCCSc1ccc(C(F)(F)F)cn1` [CBK028739], the viability at 28.5 h, 10 µM came to 115%.
In the case of `CCCc1cnc(N2CCOCC2)nc1` [CBK028742] it was 89%; in that of `CSc1nncc(-c2ccc(Cl)cc2)n1` [CBK028747], 77.1%.
For the compound `OCCN1CCN(c2nccc(C(F)(F)F)n2)CC1` [CBK028754], the viability at 28.5 h, 10 µM stood at 107%.
Take `Clc1ccc(C2N(Cc3ccccc3)CCC3CCCCN32)cc1Cl` (stereo not drawn) [CBK028769]: the viability at 28.5 h, 10 µM is 86.6%.
With `c1ccc2c(CN3CCCNCC3)cccc2c1` [CBK028773], the viability at 28.5 h, 10 µM was 81%.
Consider `CCCCN1CC(C(=O)OCC)=C(O)C1=O` [CBK028774], for which the viability at 28.5 h, 10 µM came to 110%.
As for `O=C1CC2(CCCC2)C(=O)N1CCNc1nccc(C(F)(F)F)n1` [CBK028777], the viability at 28.5 h, 10 µM is 97.4%.
As for `O=C(NCc1ccco1)C1CCN(c2nccc(C(F)(F)F)n2)CC1` [CBK028778], the viability at 28.5 h, 10 µM stood at 105%.
For the compound `Nc1cc2c(cc1Cl)C(=O)NC2=O` [CBK028783], the viability at 28.5 h, 10 µM is 101%.
The figure for `CC(=O)Nc1ccc(S(N)(=O)=O)cc1Cl` [CBK028784] is 109%; for `CC(C)(C)NC(=O)N1CCC(Nc2nccc(C(F)(F)F)n2)CC1` [CBK028788] it is 113%; for `N#CCSc1nnc(NC(=O)Nc2ccccc2)s1` [CBK028792] it is 85.3%.
In the case of `C#CC1(NC(=O)NS(=O)(=O)c2ccc(C)cc2)CCCCC1` [CBK028805], the viability at 28.5 h, 10 µM was 96.9%.
The figure for `Cn1c(S)nnc1-c1ccccc1F` [CBK028811] is 95%.
On to `O=C1CN=C(N2C(=O)C3C4C=CC(C4)C3C2=O)C(=O)N1` (stereo not drawn) [CBK028818], for which the viability at 28.5 h, 10 µM was found to be 89.7%.
Take `Cc1nnc(N/N=C\c2ccco2)n1N` [CBK028824C]: the viability at 28.5 h, 10 µM was 97.4%.
Turning to `O=C(Nc1cc(Cl)ccc1Cl)c1ncn[nH]1` [CBK028834], the viability at 28.5 h, 10 µM worked out at 92.9%.
With `Nc1nonc1N/N=C/c1ccccc1F` [CBK028838], the viability at 28.5 h, 10 µM was determined as 68.4%.
The figure for `CC1=CC(=O)Nc2ccccc2S1` [CBK028872] is 118%; for `Cc1ccnc(SCC(N)=O)n1` [CBK028874] it is 96.1%.
`COc1cc(CCN2CCN(C(C)C)CC2)cc(OC)c1OC` [CBK028881C]: the viability at 28.5 h, 10 µM was determined as 89.8%.
Take `Cc1cc(C(=O)O)c2[nH]c3c(c2c1)CCCC3` [CBK028885]: the viability at 28.5 h, 10 µM was determined as 95.5%.
In the case of `COc1cc(C=C2C(=O)OC(C)(C(C)(C)C)OC2=O)cc(Br)c1OC` (stereo not drawn) [CBK028893] it was 96.5%.
The figure for `CC(C)N1CCN(c2nccnc2Cl)CC1` [CBK028901] is 101%.
In the case of `CC(C)(C)c1cc(NC(=O)c2csc3c(C(F)(F)F)cc(N4CCN(Cc5ccccc5)CC4)nc23)no1` [CBK028962], the viability at 28.5 h, 10 µM was determined as 108%.
With `CC1(C)CC(NC2=CC(=O)CC2)CC(C)(C)N1` [CBK028997], the viability at 28.5 h, 10 µM was 115%.
The figure for `O=C(Nc1cccc(N2CCNCC2)c1)c1cnc2ccccc2c1` [CBK029415T] is 83.2%; for `COc1ccc(C(=O)Nc2cccnc2N2CCNCC2)cc1` [CBK029421T] it is 102%; for `O=C(Nc1cccnc1N1CCNCC1)c1ccccn1` [CBK029425T] it is 116%.
As for `O=C(Nc1ccc(N2CCNCC2)nc1)c1cccs1` [CBK029430T], the viability at 28.5 h, 10 µM was found to be 111%.
For `COc1ccc(C(=O)Nc2ccc(N3CCNCC3)nc2)cc1` [CBK029434T], the viability at 28.5 h, 10 µM came out at 111%.
On to `N#Cc1ccc(C(=O)Nc2ccc(N3CCNCC3)nc2)cc1` [CBK029435T], for which the viability at 28.5 h, 10 µM was 95.2%.
In the case of `O=C(Nc1ccccc1N1CCNCC1)c1cccs1` [CBK029443T] it was 95.5%; in that of `O=C(NCc1ccccc1OC1CCNC1)c1cnccn1` (stereo not drawn) [CBK029462T], 101%.
Take `Cn1cccc1C(=O)NCc1ccccc1OC1CCNC1` (stereo not drawn) [CBK029463T]: the viability at 28.5 h, 10 µM was 88.7%.
The figure for `O=C(Nc1cccc(N2CCNCC2)c1)c1cnccn1` [CBK029470T] is 90.3%; for `CNCC(=O)N1CCN(C(=O)c2ccc(Cl)cc2Cl)CC1` [CBK029576] it is 99.9%.
As for `O=C(O)c1ccc2[nH]c(=O)[nH]c2c1` [CBK032631], the viability at 28.5 h, 10 µM came to 81.3%.
On to `CC(C)COc1ccccc1C(=O)NCCC(=O)O` [CBK033507], for which the viability at 28.5 h, 10 µM came out at 102%.
Consider `Cc1cc(OCCCCNCCO)ccc1Cl` [CBK033516], for which the viability at 28.5 h, 10 µM worked out at 111%.
The figure for `CS(=O)(=O)N(Cc1ccccc1)c1ccc(C(=O)Nc2ccc3c(c2)OCO3)cc1` [CBK033562] is 85.4%; for `CC1(C)NC(=O)N(CC(O)CN(c2cc(Cl)ccc2Cl)S(=O)(=O)c2ccccc2)C1=O` (stereo not drawn) [CBK033672] it is 91.4%; for `COc1ccc(C2Nc3ccccc3C(=O)N2Cc2ccccc2)cc1COc1ccc([N+](=O)[O-])cc1` (stereo not drawn) [CBK033690] it is 86.9%.
In the case of `O=C(c1ccc(C#CC2(O)CCCCC2)cc1)N1CCC(C(O)(c2ccccc2)c2ccccc2)CC1` [CBK033758] it was 84.7%; in that of `Cc1ccc([N+](=O)[O-])cc1NC(=O)C1CCCN1S(=O)(=O)c1ccc(Cl)cc1` (stereo not drawn) [CBK033769], 95.7%.
In the case of `COc1ccc(CN2CCN(Cc3ccc4c(c3)OCO4)CC2)c(OC)c1OC` [CBK033874] it was 91.4%; in that of `COc1cc(C(=O)Nc2ccc(-c3nc4ncccc4o3)cc2)ccc1OCc1ccc(Cl)cc1` [CBK033914], 92.7%.
On to `CCCC1COC(c2ccc(C#N)cc2)OC1` (stereo not drawn) [CBK033941], for which the viability at 28.5 h, 10 µM stood at 94.5%.
Regarding `CC(C)c1cc2cc3ccc(=O)oc3cc2o1` [CBK033944], the viability at 28.5 h, 10 µM came to 93.6%.
In the case of `Oc1ccc(Oc2ccc(Oc3ccc(O)cc3)cc2)cc1` [CBK033968], the viability at 28.5 h, 10 µM is 107%.
`CC(CCc1ccc(O)cc1)NC1CCCC1` (stereo not drawn) [CBK033987]: the viability at 28.5 h, 10 µM came to 102%.
In the case of `CCCCN1CCC(CNc2cc(C(F)(F)F)c3scc(C(=O)NC4CCC4)c3n2)CC1` [CBK034026C] it was 103%; in that of `O=S(=O)(c1ccc(N2CCNCC2)cc1)n1ccc2ccc(Br)cc21` [CBK034034C], 70.6%; in that of `CCCc1ccc(S(=O)(=O)Nc2ccc(C(=O)O)cc2)cc1` [CBK034044], 114%.
`O=C(O)c1ccc(NS(=O)(=O)c2cc(F)c(Br)cc2F)cc1` [CBK034045]: the viability at 28.5 h, 10 µM is 101%.
In the case of `O=C(O)c1ccc(NS(=O)(=O)c2cc(Cl)sc2Cl)cc1` [CBK034046] it was 99.9%; in that of `COc1ccc(Br)cc1S(=O)(=O)Nc1ccc(C(=O)O)cc1` [CBK034047], 106%.
In the case of `COc1ccc(S(=O)(=O)Nc2ccc(C(=O)O)cc2)cc1OC` [CBK034048] it was 96.2%.
Take `O=C(O)c1ccc(NS(=O)(=O)c2cc(Br)c(Cl)s2)cc1` [CBK034049]: the viability at 28.5 h, 10 µM amounted to 95.8%.
In the case of `O=C(O)c1ccc(NS(=O)(=O)c2ccc3ccccc3c2)cc1` [CBK034053] it was 96.6%.
With `Cc1ccc(S(=O)(=O)Nc2ccc(C(=O)O)cc2)cc1[N+](=O)[O-]` [CBK034055], the viability at 28.5 h, 10 µM amounted to 94.8%.
The figure for `O=C(O)c1ccc(NS(=O)(=O)c2ccc(Br)cc2)cc1` [CBK034058] is 97.6%; for `NS(=O)(=O)c1cnc(Cl)c(Br)c1` [CBK034079] it is 92.5%.
In the case of `NC(=O)CCCCn1c2c(c3cccc(C(=O)O)c31)CCCCC2` [CBK034088], the viability at 28.5 h, 10 µM stood at 104%.
In the case of `O=C(Nc1cccnc1N1CCNCC1)c1ccc(-c2cccc(C(F)(F)F)c2)o1` [CBK034119T], the viability at 28.5 h, 10 µM came to 90.1%.

Source of the values: article PMC12040169 (PLOS Biology, 2025).
